US5919755A, “Medical use of heme products” (Leiras OY, priority 1995, dated 1999)
Several values for one entry are separate records, joined by “and”; a condition that tells them apart may be missing. Equal entries are not always repeated. Where two headings read alike, the source gives them in different places.

Legend:
[1] = cited from earlier work
[2] = cited from earlier work; remark: listed apart in the source
[3] = system: human erythroid precursors; assay: Induction of production of fetal hemoglobin in vitro (two-phase liquid culture, HPLC); assay type: cell-based
Source text: Cells grown in phase II in the presence of the indicated concentrations of heme arginate, were harvested on day 13 and their hemoglobin quantitated.
Cells grown in phase II in the presence of the indicated concentrations of heme arginate, were harvested on day 13 and their hemoglobin chromatographed and quantitated.
Cells grown in phase II in the absence or presence of heme arginate from day 0 and with the indicated concentrations of hydroxyurea from day 5, were harvested on day 13 and their hemoglobin chromatographed and quantitated.
3. Induction of production of fetal hemoglobin in vitro
Peripheral blood mononuclear cells obtained from normal volunteers and either sickle cell anemia or β-thalassemia patients were isolated by centrifugation on a gradient of Ficoll-Hypaque and seeded at a density of 5×10^6 cells/ml in alpha-minimal essential medium supplemented with 10% fetal calf serum (FCS), 1 μg/ml cyclosporin A, and 10% conditioned medium collected from cultures of the 5637 bladder-carcinoma cell line. The cultures were incubated at +37° C. in an atmosphere of 5% CO2 in air with extra humidity.
Following 7-day incubation in this phase I culture, the non-adherent cells were harvested, washed, and recultured in fresh medium composed of alpha-medium, 30% FCS, 1% deionized bovine serum albumin, 1×10^-5 M β-mercaptoethanol, 1.5 mM glutamine, 1×10^-6 M dexamethasone, and 1 U/ml human recombinant erythropoietin. Hemoglobin containing cells were determined by using the benzidine-HCl procedure.
The effect of heme arginate on fetal hemoglobin (Hb-F) production was determined by growing human erythroid precursors in the second phase of the above described liquide cell culture in the presence of 1 U/ml erythropoietin and different concentrations of heme arginate. The combination effect of heme arginate and hydroxyurea was investigated with 100 μM heme arginate added on day 0 and various concentrations of hydroxyurea added on day 5. Cells were harvested on day 13 and lysed, and their total hemoglobin and Hb-F content was analyzed by cation-exchange HPLC.

myelodysplastic syndrome [4] = conditions: cited from earlier work
[5] = system: polychromatic erythrocytes; assay: Mouse micronucleus assay (micronucleated polychromatic erythrocytes in bone marrow smears); assay type: in vivo, mouse (CD-1 outbred, Swiss origin); conditions: for Incidence: number of micronucleated polychromatic erythrocytes per 1000 polychromatic erythrocytes examined: 36 mg/kg i.v.
Source text: 1. Mouse micronucleus assay
Micronuclei are seen in a variety of cells, but erythrocytes are chosen for examination since micronuclei are easily detected in this cell type.
A few hours after the last mitosis is completed, erythroblasts expel their nucleus. Young erythrocytes stain blue with Giemsa due to the presence of ribonucleic acid, which gradually disappears so that more mature erythrocytes stain pink with Giemsa. The young blue-staining cells are known as polychromatic erythrocytes and micronuclei are readily detected in this cell type.
The test animals were specific pathogen free CD-1 outbred mice of Swiss origin weighing between 22 and 24 grams and approximately 40 days old during the study. The mice were acclimatized for four days and after that dosed by intravenous injection with a volume of 10 ml/kg body weight either with saline solution (vehicle control) or with heme arginate solution at the dose 36 mg hemin/kg body weight. Five male and five female mice were sacrificed by cervical dislocation 24, 48, and 72 hours after dosing. A direct bone marrow smear was made from femur onto a slide containing a drop of calf serum. The smears were fixed in methanol, air dried, and stained for 10 minutes in 10% Giemsa solution. The stained smears were examined (under code) by light microscopy to determine the incidence of micronucleated cells per 1000 polychromatic erythrocytes per animal.

[6] = system: myelodysplastic syndromes; conditions: part of MDS patients; cited from earlier work
[7] = rat, intravenous dose of 3 mg/kg; cited from earlier work
blasts in bone marrow = assay: Proportion of blasts in the bone marrow of myelodysplastic patients; assay type: in vivo, human; conditions: for Blasts in bone marrow, after / Myeloblasts in bone marrow, after / Sum of blasts and myeloblasts in bone marrow, after: one week after last of 15 infusions, 3 mg hemin/kg i.v.; for Myelodysplastic syndrome subtype, after: after treatment
Experimental: 2. Proportion of blasts in the bone marrow of myelodysplastic patients
In a clinical study patients with myelodysplastic syndromes were treated with intravenous infusions of heme arginate at the dose level 3 mg hemin/kg. The infusions were given first on four consecutive days and after that once a week for eleven weeks. Thus totally 15 infusions were given to each patient.
Bone marrow sample was collected from each patient before start of the heme arginate infusions and one week after the last infusion. Proportion of blasts and myeloblasts were determined in the bone marrow samples by using standard hematological laboratory procedures. The definition of "a blast" as used in the classification of myelodysplastic syndromes includes both blasts and myeloblasts (9).

plasma proteins = conditions: after infusion into the blood stream; cited from earlier work
[8] = humans, intravenous dose of 3 mg/kg; cited from earlier work
myelodysplastic syndrome [9] = conditions: cited from earlier work; remark: listed apart in the source
[10] = of 26 patients, 2-3 mg hemin/kg
[11] = Table 3, one line per patient, baseline before treatment
[12] = Table 4, patients not considered good responders, one line per patient, baseline before treatment
[13] = Table 4, patients not considered good responders, one line per patient

In the case of C=CC1=C(C)c2cc3[n-]c(cc4[n-]c(cc5nc(cc1n2)C(C)=C5C=C)c(C)c4CCC(=O)O)c(CCC(=O)O)c3C.O.[Fe+2] [hematin], the adverse effects ([1]; in vivo, iv) is given as “often complicated by adverse effects, including phlebitis at the infusion site and disturbances in hemostasis”.

For Hemin, the solubility [2] is listed as “poorly soluble”.

For heme arginate, the adverse effects ([1]; intravenous use, incl. phlebitis at infusion site and disturbances in hemostasis) is listed as “lack of serious adverse effects”, the adverse effects ([1]; intravenous use, incl. phlebitis at infusion site and disturbances in hemostasis, listed as Heme arginate) is listed as “seldom produces these effects and therefore is better tolerated” and the “amount of total hemoglobin produced” value ([3]; FIG. 1, phase II culture, harvested day 13, erythroid precursors from patients with hemoglobinopathies) is listed as “increases the amount of total hemoglobin”. For the same compound, the “proportion of fetal hemoglobin (Hb-F)” value ([3]; FIG. 2, phase II culture, harvested day 13, heme arginate alone) was “increases the proportion of fetal hemoglobin”, the “effect of heme arginate on proportion of fetal hemoglobin (Hb-F) in presence of hydroxyurea” value ([3]; FIG. 3, heme arginate 100 μM from day 0, hydroxyurea 25-200 μM from day 5, harvested day 13) was “potentiated by the presence of hydroxyurea” and the solubility [2] was “increases the aqueous solubility”. For the same compound, the “patients with MDS progression” value (myelodysplastic syndrome [4]; of 26 patients (13)) was 4/26, the “patients showing improvement in cytopenias during the therapy” value (myelodysplastic syndrome [4]; [10]) was “Six” and the “patients with long-lasting good response with normal or close to normal blood cell counts” value (myelodysplastic syndrome [4]; [10]) was “three”. For the same compound, the “duration of long-lasting good response” value (myelodysplastic syndrome [4]; single patients, 2-3 mg hemin/kg) was > 11 months and > 12 months and 25 months, the “Incidence: number of micronucleated polychromatic erythrocytes per 1000 polychromatic erythrocytes examined” value ([5]; killed 24 hours after dosing, vehicle control 1.2) was 1.1 per 1000 polychromatic erythrocytes and the “Incidence: number of micronucleated polychromatic erythrocytes per 1000 polychromatic erythrocytes examined” value ([5]; killed 48 hours after dosing, vehicle control 1.0) was 0.5 per 1000 polychromatic erythrocytes. For the same compound, the “Incidence: number of micronucleated polychromatic erythrocytes per 1000 polychromatic erythrocytes examined” value ([5]; killed 72 hours after dosing, vehicle control 1.0) was 0.4 per 1000 polychromatic erythrocytes, the “effect on incidence of mutagenesis (mouse micronucleus test)” value ([5]; in vivo, 36 mg/kg) was “able to decrease incidence of mutagenesis” and the “effect on blood cell counts” value [6] was “clinically effective in part of MDS patients by increasing the blood cell counts”. For the same compound, the AUC [7] was 64 µg/mL/h, the “Blasts in bone marrow, before” value (blasts in bone marrow; Table 3, RAEB or RAEB-t patients, one line per patient, baseline before treatment) was 4% and 3% and 6% and 15% and 10% and the “Blasts in bone marrow, after” value (blasts in bone marrow; Table 3, RAEB or RAEB-t patients, one line per patient) was 0% and 1% and 4% and 6%. The “Myelodysplastic syndrome subtype, after” value (blasts in bone marrow; Table 3, one line per patient) was “RARS and RAEB”, the “Myeloblasts in bone marrow, before” value (blasts in bone marrow; [11]) was 6% and 8% and 4% and 3% and 20% and the “Myelodysplastic syndrome subtype, before” value (blasts in bone marrow; [11]) was “RAEB and RAEB-t”. The “Myeloblasts in bone marrow, after” value (blasts in bone marrow; Table 3, one line per patient) was 4% and 3%, the “Sum of blasts and myeloblasts in bone marrow, after” value (blasts in bone marrow; Table 3 and text, one line per patient) was 4% and 8% and 10% and the “patients with a clear decrease of blasts” value (blasts in bone marrow; Table 3 patients, of 21) was 5/21. The “Blasts in bone marrow, before” value (blasts in bone marrow; Table 4, RARS or RAEB patients not considered good responders, one line per patient, baseline before treatment) was 5 and 8 and 2 and 3 and 1 and 4 and 0, the “Myelodysplastic syndrome subtype, after” value (blasts in bone marrow; Table 4, one line per patient) was “RAEB and RARS” and the “Myelodysplastic syndrome subtype, before” value (blasts in bone marrow; Table 4, one line per patient, baseline before treatment) was “RAEB and RARS”. For the same compound, the “Myeloblasts in bone marrow, before” value (blasts in bone marrow; [12]) was 4 and 2 and 8 and 9 and 3 and 10 and 5 and 1, the “Sum of blasts and myeloblasts in bone marrow, before” value (blasts in bone marrow; [12]) was 9 and 12 and 4 and 5 and 7 and 14 and 13 and 3 and 1 and 10 and the “Blasts in bone marrow, after” value (blasts in bone marrow; [13]) was 5 and 8 and 0 and 2 and 3 and 1 and 4. The “Myeloblasts in bone marrow, after” value (blasts in bone marrow; [13]) was 3 and 2 and 1 and 7 and 6 and 10 and 9 and 5 and 0, the “Sum of blasts and myeloblasts in bone marrow, after” value (blasts in bone marrow; [13]) was 8 and 11 and 2 and 3 and 7 and 13 and 4 and 12 and 6 and 1 and 9 and the “patients with a smaller decrease of blasts” value (blasts in bone marrow; Table 4 patients, of 21) was 12/21. For the same compound, the “patients with no effect on blasts” value (blasts in bone marrow; Table 4 patients, of 21) was 1/21, the “patients with slight increase of blasts” value (blasts in bone marrow; Table 4 patients, of 21) was 3/21 and the “patients with some decrease of blasts, totally” value (blasts in bone marrow; all patients, of 21) was 17/21. The “effect on proportion of blasts in bone marrow” value (blasts in bone marrow; some MDS patients) was “able to decrease proportion of blasts”, the plasma protein binding (plasma proteins) was “quickly bound to the plasma proteins in monomeric form” and the AUC [8] was 998 µg/mL/h. The “patients with MDS progression” value (myelodysplastic syndrome [9]; of 14 patients (15)) was 4/14, the “patients with decrease of blasts” value (myelodysplastic syndrome [9]; of 14 patients (15), considered to be an occasional event) was 1/14 and the “patients with long-lasting improvement in hemoglobin values and/or platelet counts” value (myelodysplastic syndrome [9]; of 14 patients, 3 mg hemin/kg) was “Three”. The “duration of long-lasting improvement in hemoglobin values and/or platelet counts” value (myelodysplastic syndrome [9]; single patients, 3 mg hemin/kg) was 5 months and 26 months and > 41 months.
